In BindingDB's records for doi:10.1016/j.ejmech.2012.05.016 (Piramal Healthcare, 2012):

The compounds below were run against DGAT1 (Homo sapiens) (assay: Inhibition of human DGAT1 assessed as conversion of [14C]-oleoyl-CoA to [14C]-triglyceride after 10 mins by scintillation counting).
`CC(C)[C@H](NC(=O)c1cc(-c2ccc(NC(=O)Nc3cc(F)ccc3F)cc2)no1)C(=O)O` gave an IC50 of 141 nM.
`CC(C)[C@H](NC(=O)c1cc(-c2ccc(NC(=O)Nc3ccccc3F)cc2)no1)C(=O)O` showed an IC50 of 141 nM.
`CC(C)[C@H](NC(=O)c1cc(-c2ccc(NC(=O)Nc3cc(F)cc(F)c3)cc2)no1)C(=O)O` was tested, and the IC50 was 75 nM.
Compound `Cc1ccc(NC(=O)Nc2ccc(-c3cc(C(=O)N[C@H](C(=O)O)C(C)C)on3)cc2)cc1` has an IC50 of 61 nM.
Compound `CC(C)[C@H](NC(=O)c1cc(-c2ccc(NC(=O)Nc3ccc(Cl)cc3Oc3ccccc3)cc2)no1)C(=O)O` has an IC50 of 86 nM.
Compound `CC(C)[C@H](NC(=O)c1cc(-c2ccc(NC(=O)Nc3ccc(Cl)cc3)cc2)no1)C(=O)O` has an IC50 of 124 nM.
With `CC(C)[C@H](NC(=O)c1cc(-c2ccc(NC(=O)Nc3ccc(F)cc3F)cc2)no1)C(=O)O` the IC50 was 62 nM.
In the case of `CC(C)[C@H](NC(=O)c1ncc(-c2ccc(NC(=O)Nc3ccc(Cl)cc3Oc3ccccc3)cc2)o1)C(=O)O`, the IC50 is reported as 230 nM.
In the case of `CC(C)[C@H](NC(=O)c1cc(-c2ccc(NC(=O)Nc3c(F)cccc3F)cc2)no1)C(=O)O`, the IC50 is reported as 185 nM.
Compound `CC(C)[C@H](NC(=O)c1cc(-c2ccc(NC(=O)Nc3ccccc3Cl)cc2)no1)C(=O)O` has an IC50 of 44 nM.
For `CC(C)[C@H](NC(=O)c1ncc(-c2ccc(NC(=O)Nc3cccc(C(F)(F)F)c3)cc2)o1)C(=O)O`, the IC50 was 458 nM.
`CC(C)[C@H](NC(=O)c1cc(-c2ccc(NC(=O)Nc3ccc(F)c(F)c3)cc2)no1)C(=O)O` showed an IC50 of 75 nM.
For `CC(C)[C@H](NC(=O)c1cc(-c2ccc(NC(=O)Nc3ccc(F)cc3)cc2)no1)C(=O)O`, the IC50 was 60 nM.
With `CC(C)[C@H](NC(=O)c1ncc(-c2ccc(NC(=O)Nc3ccccc3Cl)cc2)o1)C(=O)O` the IC50 was 282 nM.
With `CC(C)[C@H](NC(=O)c1cc(-c2ccc(NC(=O)Nc3ccc(Cl)cc3F)cc2)no1)C(=O)O` the IC50 was 24 nM.
`CC(C)[C@H](NC(=O)c1nc(-c2ccc(NC(=O)Nc3ccc(F)cc3F)cc2)no1)C(=O)O` was tested, and the IC50 was 259 nM.
Compound `CC(C)[C@H](NC(=O)c1cc(-c2ccc(NC(=O)Nc3cccc(C(F)(F)F)c3)cc2)no1)C(=O)O` has an IC50 of 66 nM.
`CC(C)[C@H](NC(=O)c1cc(-c2ccc(NC(=O)Nc3cccc(Cl)c3)cc2)no1)C(=O)O` showed an IC50 of 45 nM.
`Cc1ccc(NC(=O)Nc2ccc(-c3cc(C(=O)N[C@H](C(=O)O)C(C)C)on3)cc2)cc1F` was tested, and the IC50 was 178 nM.
`Cc1ccccc1NC(=O)Nc1ccc(-c2cc(C(=O)N[C@H](C(=O)O)C(C)C)on2)cc1` gave an IC50 of 84 nM.
`CC(C)[C@H](NC(=O)c1cc(-c2ccc(Nc3nc4ccc(F)cc4s3)cc2)no1)C(=O)O` was tested, and the IC50 was 120 nM.
In the case of `Cc1cc(F)ccc1NC(=O)Nc1ccc(-c2cc(C(=O)N[C@H](C(=O)O)C(C)C)on2)cc1`, the IC50 is reported as 90 nM.
With `Cc1cc(C)cc(NC(=O)Nc2ccc(-c3cc(C(=O)N[C@H](C(=O)O)C(C)C)on3)cc2)c1` the IC50 was 114 nM.
